Measured values from patent publication US7074784B2, “Medicaments against viral diseases” (priority 2000, dated 2006).

Legend:
hepatitis B virus = test: Antiviral action on hepatitis B virus in HepG2.2.15 cells (HBV DNA dot-blot hybridization); assay type: cell-based; conditions: 192 h, 8 days treatment, intra- or extracellular hepatitis B-specific DNA band reduced by 50% compared with untreated sample
Experimental: The antiviral action of the compounds of the invention on hepatitis B virus was investigated by methods based on those described by M. A. Sells et al., Proc. Natl. Acad. Sci. 84, 1005–1009 (1987) and B. E. Korba et al., Antiviral Research 19, 55–70 (1992).
The antiviral tests were carried out in 96-well microtiter plates. The first vertical row of the plate received only growth medium and HepG2.2.15 cells. It served as virus control.
Stock solutions of the test compounds (50 mM) were initially dissolved in DMSO, and further dilutions were prepared in the HepG2.2.15 growth medium. The compounds according to the invention were usually pipetted in a test concentration of 100 μM (1st test concentration) in each case into the second vertical test row of the microtiter plate and subsequently diluted in twofold steps 2^10 times in growth medium plus 2% by weight of fetal calf serum (volume 25 μl).
Each well of the microtiter plate then contained 225 μl of HepG2.2.15 cell suspension (5×10^4 cells/ml) in growth medium plus 2% by weight of fetal calf serum. The test mixture was incubated at 37° C. and 5% CO2 (v/v) for 4 days.
The supernatant was then aspirated off and discarded, and the wells received 225 μl of freshly prepared growth medium. The compounds according to the invention were each added anew as 10-fold concentrated solution in a volume of 25 μl. The mixtures were incubated for a further 4 days.
The supernatant and/or cells were then harvested and sucked by means of a vacuum onto 96-well dot-blot chambers covered with a nylon membrane (in accordance with the manufacturer's information).
After the supernatants or lysed cells had been transferred to the nylon membrane of the blot apparatus (see above), the intra- or extracellular supernatants of the HepG2.2.15 cells were denatured (1.5 M NaCl/0.5 N NaOH), neutralized (3 M NaCl/0.5 M Tris HCl, pH 7.5) and washed (2×SSC). The DNA was then baked onto the membrane by incubating the filters at 120° C. for 2–4 hours.
Detection of the viral DNA from the treated HepG2.2.15 cells on the nylon filters was usually carried out with nonradioactive, digoxigenin-labeled hepatitis B-specific DNA probes, each of which was labeled with digoxigenin, purified and employed for the hybridization in accordance with the manufacturer's information.
The prehybridization and hybridization took place in 5×SSC, 1× blocking reagent, 0.1% by weight N-lauroylsarcosine, 0.02% by weight SDS and 100 μg of herring sperm DNA. The prehybridization took place at 60° C. for 30 minutes, and the specific hybridization with 20 to 40 ng/ml of the digoxigenized, denatured HBV-specific DNA (14 hours, 60° C.). The filters were then washed.
The immunological detection of the digoxigenin-labeled DNA took place in accordance with the manufacturer's information:
The filters were washed and prehybridized in a blocking reagent (in accordance with the manufacturer's information). Hybridization was then carried out with an anti-DIG antibody coupled to alkaline phosphatase for 30 minutes. After a washing step, the substrate of alkaline phosphatase, CSPD, was added, incubated with the filters for 5 minutes, then packed in plastic film and incubated at 37° C. for a further 15 minutes. The chemiluminescence of the hepatitis B-specific DNA signals was visualized by exposing the filters to an X-ray film (incubation depending on signal strength: 10 minutes to 2 hours).
The half-maximum inhibitory concentration (IC50, 50% inhibitory concentration) was determined as the concentration at which the intra- or extracellular hepatitis B-specific band was reduced by the compound according to the invention by 50% compared with an untreated sample.

HepG2.2.15 cells = test: Cytotoxicity determination in HepG2.2.15 cells; assay type: cell-based; conditions: 50% of the cells show a morphology comparable to the cell control
Description: Before harvesting the supernatants to determine the antiviral effect, the HepG2.2.15 cells were examined under the light microscope or by means of biochemical detection methods (for example Alamar Blue stain or Trypan Blue stain) for cytotoxic changes.
Substance-induced cytotoxic or cytostatic changes in the HepG2.2.15 cells were detected, for example, under the light microscope as changes in cell morphology. Such substance-induced changes in the HepG2.2.15 cells compared with untreated cells were visible, for example, as cytolysis, vacuolation or altered cell morphology. […]
No cytotoxic changes were detectable at concentrations >10 μM of the compounds of the invention.

## COC(=O)C1=C(Cn2ccnc2)NC(c2ncc(F)cc2F)=NC1c1ccc(F)cc1Br (stereo not drawn)
other
  melting point: 123 to 126 °C

## COC(=O)C1=C(CN2CCOCC2)NC(c2ncc(F)cc2F)=NC1c1ccc(Cl)cc1Cl (stereo not drawn)
other
  melting point: 225 to 227 °C

## COC(=O)C1=C(CN2CCSC2)NC(c2ncccc2F)=NC1c1ccc(F)cc1Cl (stereo not drawn)
other
  melting point: 163 to 164 °C

## COC(=O)C1=C(CN(CCO)CCO)NC(c2ncc(F)cc2F)=NC1c1ccc(Cl)cc1Cl (stereo not drawn)
other
  melting point: 144 to 145 °C

## COC(=O)C1=C(CN2CCOCC2)NC(c2ncccc2F)=NC1c1ccc(F)cc1Cl (stereo not drawn) [Example 34]
Hepatitis B virus
  IC50: 9 nM
other
  melting point: 161 to 163 °C
HepG2.2.15 cells
  Tox50: 60 µM

## COC(=O)C1=C(CN2CCSCC2)NC(c2ncccc2F)=NC1c1ccc(F)cc1Cl (stereo not drawn)
other
  melting point: 145 °C

## CCN(C)CC1=C(C(=O)OC)C(c2ccc(Cl)cc2Cl)N=C(c2ncc(F)cc2F)N1 (stereo not drawn)
other
  melting point: 142 to 143 °C

## COC(=O)C1=C(CN2CCOCC2)NC(c2ncc(F)cc2F)=N[C@H]1c1ccc(F)cc1Cl [Example 5]
Hepatitis B virus
  IC50: 2 nM
other
  melting point: 178 °C
HepG2.2.15 cells
  Tox50: 40 µM

## COC(=O)C1=C(CN2CCSC2)NC(c2ncc(F)cc2F)=NC1c1ccc(Cl)cc1Cl (stereo not drawn)
other
  melting point: 189 to 191 °C

## COC(=O)C1=C(CN2CCSCC2)NC(c2ncc(F)cc2F)=NC1c1ccc(F)cc1Br (stereo not drawn)
other
  melting point: 173 to 174 °C

## COC(=O)C1=C(CN(C)CCO)NC(c2ncccc2F)=NC1c1ccc(F)cc1Cl (stereo not drawn)
other
  melting point: 117 to 119 °C

## COC(=O)C1=C(CN2CCOCC2)NC(c2nccs2)=NC1c1ccc(Cl)cc1Cl (stereo not drawn) [Example 45]
Hepatitis B virus
  IC50: 2 nM
other
  melting point: 149 °C
HepG2.2.15 cells
  Tox50: 34 µM

## COC(=O)C1=C(CN2CCCC2)NC(c2ncc(F)cc2F)=NC1c1ccc(Cl)cc1Cl (stereo not drawn)
other
  melting point: 168 to 170 °C

## COC(=O)C1=C(CN2CCSC2)NC(c2ncc(F)cc2F)=NC1c1ccc(F)cc1Br (stereo not drawn)
other
  melting point: 183 to 184 °C

## COC(=O)C1=C(CN(CCO)CCO)NC(c2ncccc2F)=NC1c1ccc(F)cc1Cl (stereo not drawn)
other
  melting point: 119 to 120 °C

## COC(=O)C1=C(CN(CCO)Cc2ccccc2)NC(c2ncccc2F)=NC1c1ccc(F)cc1Cl (stereo not drawn)
other
  melting point: 128 °C

## COC(=O)C1=C(CN2CCSC2)NC(c2ncccc2F)=NC1c1ccc(Cl)cc1Cl (stereo not drawn)
other
  melting point: 175 °C

## COC(=O)C1=C(CN2CCSCC2)NC(c2ncccc2F)=NC1c1ccc(F)cc1Br (stereo not drawn)
other
  melting point: 128 to 131 °C

## COC(=O)C1=C(CN2CCCCC2)NC(c2ncccc2F)=NC1c1ccc(Cl)cc1Cl (stereo not drawn)
other
  melting point: 155 to 156 °C

## COC(=O)C1=C(CN2CCSCC2)NC(c2ncc(F)cc2F)=NC1c1ccc(Cl)cc1Cl (stereo not drawn) [Example 15]
Hepatitis B virus
  IC50: 50 nM
other
  melting point: 166 to 168 °C
HepG2.2.15 cells
  Tox50: 3 µM

## COC(=O)C1=C(CN2CCSC2)NC(c2nccs2)=NC1c1ccc(Cl)cc1Cl (stereo not drawn)
other
  melting point: 169 to 170 °C

## COC(=O)C1=C(CN2CCOCC2)NC(c2ncccc2F)=NC1c1ccc(Cl)cc1Cl (stereo not drawn) [Example 7]
Hepatitis B virus
  IC50: 25 nM
other
  melting point: 182 to 183 °C
HepG2.2.15 cells
  Tox50: 25 µM

## COC(=O)C1=C(CN2CCSCC2)NC(c2ncccc2F)=NC1c1ccc(Cl)cc1Cl (stereo not drawn)
other
  melting point: 137 °C

## COC(=O)C1=C(CN2CCSCC2)NC(c2ncc(F)cc2F)=N[C@H]1c1ccc(F)cc1Cl [Example 11]
Hepatitis B virus
  IC50: 40 nM
HepG2.2.15 cells
  Tox50: >8 µM

## COC(=O)C1=C(CCN2CCSC2)NC(c2ncc(F)cc2F)=NC1c1ccc(F)cc1Cl (stereo not drawn) [Example 2, Methyl 4-(2-chloro-4-fluorophenyl)-2-(3,5-difluoro-2-pyridyl)-6-[2-(1,3-thiazolidin-3-yl)-ethyl]-1,4-dihydropyrimidine-5-carboxylate]
Hepatitis B virus
  IC50: 400 nM
HepG2.2.15 cells
  Tox50: 38 µM

## COC(=O)C1=C(CN(C)CCO)NC(c2ncc(F)cc2F)=NC1c1ccc(F)cc1Br (stereo not drawn)
other
  melting point: 114 to 116 °C

## COC(=O)C1=C(CN2CCCC2)NC(c2ncc(F)cc2F)=NC1c1ccc(F)cc1Br (stereo not drawn)
other
  melting point: 161 to 162 °C

## COC(=O)C1=C(CN(CCO)CCO)NC(c2ncccc2F)=NC1c1ccc(Cl)cc1Cl (stereo not drawn)
other
  melting point: 155 °C

## COC(=O)C1=C(CN2CCOCC2)NC(c2ncc(F)cc2F)=N[C@H]1c1ccc(F)cc1Br [Example 31]
Hepatitis B virus
  IC50: 2 nM
other
  melting point: 189 to 190 °C
HepG2.2.15 cells
  Tox50: 63 µM

## COC(=O)C1=C(CN2CCSC2)NC(c2ncccc2F)=NC1c1ccc(F)cc1Br (stereo not drawn)
other
  melting point: 172 to 173 °C

## COC(=O)C1=C(CN2CCOCC2)NC(c2ncc(F)cc2F)=NC1c1ccc(F)cc1Br (stereo not drawn) [Example 9]
Hepatitis B virus
  IC50: 7 nM
other
  melting point: 216 to 218 °C
HepG2.2.15 cells
  Tox50: 17 µM

## COC(=O)C1=C(CN(CCO)Cc2ccccc2)NC(c2ncc(F)cc2F)=NC1c1ccc(F)cc1Br (stereo not drawn)
other
  melting point: 135 °C

## COC(=O)C1=C(CN(CCO)Cc2ccccc2)NC(c2ncccc2F)=NC1c1ccc(F)cc1Br (stereo not drawn)
other
  melting point: 121 °C

## COC(=O)C1=C(CN2CCOCC2)NC(c2ncccc2F)=NC1c1ccc(F)cc1Br (stereo not drawn) [Example 24]
Hepatitis B virus
  IC50: 20 nM
other
  melting point: 156 to 158 °C
HepG2.2.15 cells
  Tox50: 80 µM

## COC(=O)C1=C(CN(CCO)CCO)NC(c2nccs2)=NC1c1ccc(Cl)cc1Cl (stereo not drawn)
other
  melting point: 133 °C

## COC(=O)C1=C(CN(C)CCO)NC(c2nccs2)=NC1c1ccc(Cl)cc1Cl (stereo not drawn)
other
  melting point: 132 °C
